Data as given in patent publication US12600714B2, “Substituted pyrazinecarboxamide compounds for treating diseases related to EGFR mutation” (WIGEN BIOMEDICINE TECHNOLOGY (SHANGHAI) CO., LTD., priority 2020, dated 2026).
pIC50: −log10 of the molar value.

What was measured:
A431 (EGFR WT) cells = test: Antiproliferative activity against A431 (EGFR WT) cells, Cell Titer Glow; type: cell-based; details: Homo sapiens, A-431, 72 h; three days after addition of compounds; read-out: Antiproliferative activity A431 wild-type (WT) IC50
Experimental: (§1) Antiproliferative Activity of the Compounds Disclosed Herein Against Ba/F3 (EGFR^del19/T790M/C797S) Triple-Mutant Cells and A431 (EGFR WT) Cells
(§2) • 3000 Ba/F3 cells carrying EGFR (del19/T790M/C797S) or 2000 A431 cells were seeded in a 384-well plate. After one day, serially diluted compounds were added (up to 500 nM for Ba/F3 cells and up to 10 μM for A431 cells). Three days after the addition of the compounds, Cell Titer Glow was added to evaluate cell growth and the percentage cell growth inhibition by the compounds and the IC50 values were calculated.

[1] = target: Ba/F3 (EGFR^del19/T790M/C797S) triple-mutant cells (Homo sapiens, UniProt P00533, T790M/C797S, cells depend on it, form not given); test: Antiproliferative activity against Ba/F3 (EGFR del19/T790M/C797S) triple-mutant cells, Cell Titer Glow; type: cell-based; details: three days after addition of compounds; read-out: Antiproliferative activity BaF3(EGFR^del19/T790M/C797S) IC50
Chain of Ba/F3 (EGFR^del19/T790M/C797S) triple-mutant cells (P00533 with tags, fused parts or gaps DEL746-750/T790M/C797S, form open): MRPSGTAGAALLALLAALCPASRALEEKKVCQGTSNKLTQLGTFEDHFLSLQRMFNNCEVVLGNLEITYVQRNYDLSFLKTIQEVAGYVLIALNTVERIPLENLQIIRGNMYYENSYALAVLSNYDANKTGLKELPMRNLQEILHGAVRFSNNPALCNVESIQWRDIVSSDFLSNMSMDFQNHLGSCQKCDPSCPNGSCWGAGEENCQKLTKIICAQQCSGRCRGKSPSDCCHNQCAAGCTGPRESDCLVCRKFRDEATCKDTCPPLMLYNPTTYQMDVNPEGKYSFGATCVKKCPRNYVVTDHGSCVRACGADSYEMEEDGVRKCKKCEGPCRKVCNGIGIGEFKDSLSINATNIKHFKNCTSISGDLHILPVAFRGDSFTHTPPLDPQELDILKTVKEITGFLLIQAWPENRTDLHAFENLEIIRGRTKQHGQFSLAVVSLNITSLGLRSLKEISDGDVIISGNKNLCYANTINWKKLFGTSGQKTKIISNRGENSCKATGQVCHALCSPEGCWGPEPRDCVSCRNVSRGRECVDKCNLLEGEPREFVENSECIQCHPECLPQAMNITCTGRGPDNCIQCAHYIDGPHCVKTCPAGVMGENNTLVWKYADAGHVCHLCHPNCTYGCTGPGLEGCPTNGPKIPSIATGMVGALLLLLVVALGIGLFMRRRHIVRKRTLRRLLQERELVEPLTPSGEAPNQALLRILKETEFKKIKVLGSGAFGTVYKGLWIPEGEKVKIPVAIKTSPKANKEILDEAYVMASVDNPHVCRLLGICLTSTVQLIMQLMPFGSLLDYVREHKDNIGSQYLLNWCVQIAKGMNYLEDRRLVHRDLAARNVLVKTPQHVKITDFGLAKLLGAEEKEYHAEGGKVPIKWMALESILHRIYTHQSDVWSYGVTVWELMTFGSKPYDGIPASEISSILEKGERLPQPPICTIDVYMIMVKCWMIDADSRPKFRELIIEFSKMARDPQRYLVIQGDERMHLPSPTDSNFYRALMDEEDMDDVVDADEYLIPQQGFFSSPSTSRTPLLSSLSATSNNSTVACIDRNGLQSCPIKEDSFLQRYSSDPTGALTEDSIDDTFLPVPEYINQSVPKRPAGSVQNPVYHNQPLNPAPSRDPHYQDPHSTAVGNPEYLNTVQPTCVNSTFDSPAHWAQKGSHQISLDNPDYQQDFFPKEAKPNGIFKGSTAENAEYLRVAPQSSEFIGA
Experimental: as §1, §2

EGFR (del19/T790M/C797S) = test: HTRF inhibitory activity assay against EGFR (del19/T790M/C797S) enzyme; type: biochemical
Outline: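 Wild-type or mutant EGFR preincubated with serially diluted compound 10 min at 28 °C, then reacted 40 min at room temperature with biotinylated TK substrate and ATP. Phosphorylation detected by HTRF (Eu-cryptate anti-TK antibody, streptavidin-XL665, 60 min), 665/615 nm ratio; % inhibition and IC50 vs control.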

| SMILES | pIC50 (A431 (EGFR WT) cells) | GI50 [1] [nM] | EGFR (del19/T790M/C797S) inhibition (%) (0.3 nM compound) (EGFR (del19/T790M/C797S)) |
| --- | --- | --- | --- |
| Cc1cc(Nc2nc(NC3CCOCC3)c(-c3ccncc3)nc2C(N)=O)ccc1N1CCN(C)CC1 [compound 148] | 5.77 | 68 | – |
| CN1CCN(C2CCN(c3ccc(Nc4nc(N[C@@H]5CCC[C@@H]5O)c(-c5ccccc5)nc4C(N)=O)cc3)CC2)CC1 [compound 133] | – | – | ++ (++ indicates an inhibition from 20% to 50%) |
| CN1CCN(C2CCN(c3ccc(Nc4nc(NC5CCCC5)c(-c5ccccc5)nc4C(N)=O)cc3)CC2)CC1 [compound 9] | – | – | + (+ indicates an inhibition less than or equal to 20%) |
| CN1CCN(C2CCN(c3ccc(Nc4nc(NC5CCCC5(C)O)c(-c5ccccc5)nc4C(N)=O)cc3)CC2)CC1 (centres unmarked) [compound 8] | – | – | + (+ indicates an inhibition less than or equal to 20%) |
| Cc1cc(-c2nc(C(N)=O)c(Nc3ccc(N4CCC(N5CCN(C)CC5)CC4)c(C)c3)nc2NC2CCOCC2)ccn1 [compound 154] | – | – | ++ (++ indicates an inhibition from 20% to 50%) |
| CN1CCN(C2CCN(c3ccc(Nc4nc(O[C@H]5CCOC5)c(-c5ccccc5)nc4C(N)=O)cc3)CC2)CC1 [compound 18] | – | – | + (+ indicates an inhibition less than or equal to 20%) |
| CN1CCN(C2CCN(c3ccc(Nc4nc(NC5CCCC5O)c(-c5cc[nH]n5)nc4C(N)=O)cc3)CC2)CC1 (centres unmarked) [compound 618] | – | – | ++ (++ indicates an inhibition from 20% to 50%) |
| CN1CCN(C2CCN(c3ccc(Nc4nc(NC5CCOCC5)c(-c5ccn(C)c(=O)c5)nc4C(N)=O)cc3)CC2)CC1 [compound 106] | – | – | + (+ indicates an inhibition less than or equal to 20%) |
| CN(C)CCCNc1nc(Nc2ccc(N3CCC(N4CCN(C)CC4)CC3)cc2)c(C(N)=O)nc1-c1ccccc1 [compound 117] | – | – | + (+ indicates an inhibition less than or equal to 20%) |

More lines, main results first:

| pIC50 (A431 (EGFR WT) cells) | GI50 [1] [nM] | SMILES | EGFR (del19/T790M/C797S) inhibition (%) (0.3 nM compound) (EGFR (del19/T790M/C797S)) |
| --- | --- | --- | --- |
| 6.28 | 42 | CCc1cc(Nc2nc(NC3CCOCC3)c(-c3cccc4[nH]ccc34)nc2C(N)=O)ccc1N1CCC(N2CCN(C)CC2)CC1 [compound 515] | – |
| 6.64 | 27 | CN1CCN(C2CCN(c3ccc(Nc4nc(N[C@@H]5CCC[C@H](O)C5)c(-c5ccccc5)nc4C(N)=O)cc3)CC2)CC1 [compound 141] | – |
| 5.68 | > 100 | Cc1cnccc1-c1nc(C(N)=O)c(Nc2ccc(N3CCC(N4CCN(C)CC4)CC3)cc2)nc1NC1CCOCC1 [compound 74] | – |
| 6.46 | 42 | CCc1cc(Nc2nc(NC3CCOCC3)c(-c3ccnc4[nH]ccc34)nc2C(N)=O)ccc1N1CCC(N2CCN(C)CC2)CC1 [compound 516] | – |
| 6.00 | 51 | CN1CCN(c2ccc(Nc3nc(NC4CCOCC4)c(-c4cc[nH]n4)nc3C(N)=O)cc2)CC1 [compound 174] | – |
| 5.70 | 214 | CO[C@H]1CC[C@H](Nc2nc(Nc3ccc(N4CCC(N5CCN(C)CC5)CC4)cc3)c(C(N)=O)nc2-c2ccccc2)CC1 [compound 115] | – |
| 5.92 | 54 | CCc1cc(Nc2nc(NC3CCOCC3)c(-c3ccncc3)nc2C(N)=O)ccc1N1CCC(N2CCN(C)CC2)CC1 [compound 161] | – |
| 6.01 | 18 | CCc1cc(Nc2nc(NC3CCOCC3)c(-c3cc[nH]n3)nc2C(N)=O)ccc1N1CCC(N2CCN(C)CC2)CC1 [compound 184] | – |
| 5.82 | 357 | CN1CCN(C2CCN(c3ccc(Nc4nc(NC5CCOCC5)c(-c5ccccc5N(C)C)nc4C(N)=O)cc3)CC2)CC1 [compound 85] | – |
| 6.54 | 35 | CN1CCN(C2CCN(c3ccc(Nc4nc(NC5CCOCC5)c(-c5cncc6[nH]ccc56)nc4C(N)=O)cc3)CC2)CC1 [compound 538] | – |
| 5.77 | 21 | CN1CCN(C2CCN(c3ccc(Nc4nc(NC5CCOCC5)c(-c5cccc(N(C)C)c5)nc4C(N)=O)cc3)CC2)CC1 [compound 86] | – |
